One data set relates to HCT116. The experiment in a line: MTT assay, antiproliferative activity against HCT116 cells. Type of data set: cell-based. Conditions: Homo sapiens, HCT-116, 72 h, mean of at least two determinations. The text has this:
(§1) All synthesized target compounds were firstly tested for their antiproliferative activity against five human cancer cell lines, PC3, A549, HCT116, HL60, and KB, using MTT assay.
(§2) Human prostate cancer PC3 cells, lung adenocarcinoma epithelial A549 cells, colon cancer HCT116 cells, promyelocytic leukemia HL60 cells and nasopharyngeal carcinoma KB cells were obtained from the cell bank of the Institute of Biochemistry and Cell Biology, Chinese Academy of Sciences (Shanghai, China). The inhibitory activity of target compounds against tested cancer cell lines was measured using the MTT assay. PC3, A549, HCT116, HL60, and KB cancer cell lines were cultured in RPMI-1640 medium (Invitrogen, Carlsbad, CA, USA) with heat-inactivated 10% fetal bovine serum, penicillin (100 units/mL) and streptomycin (100 µg/mL) and incubated in an atmosphere with 20% oxygen and 5% carbon dioxide at 37°C. All tested compounds were dissolved in DMSO at concentrations of 10.0 mg/mL and diluted to appropriate concentrations. Cells were plated in 96-well plates for 24 h and subsequently treated with different concentrations of all tested compounds for 72 h. Viable cells were determined using 3-(4,5-dimethylthiazol-2-yl)-2,5-diphenyltetrazolium bromide assay kit (MTT, Sigma) according to operation instructions provided by the manufacturer. The concentration of drug causing 50% inhibition in absorbance compared with control cells (IC50) was calculated using the software of dose-effect analysis with microcomputers.

The next data set relates to PC3. Put plainly: MTT assay, antiproliferative activity against PC3 cells. Format: cell-based. The settings on record: Homo sapiens, PC-3, 72 h, mean of at least two determinations.
From the text: as §1, §2
(Tetrazolium assays rely on reduction of a dye to a coloured formazan, in cell work by metabolically active cells.)

A further data set has as its system A549. Put plainly: MTT assay, antiproliferative activity against A549 cells. Format: cell-based. Conditions: Homo sapiens, 72 h, mean of at least two determinations.
From the text: as §1, §2

The next data set concerns HL60. Put plainly: MTT assay, antiproliferative activity against HL60 cells. Format: cell-based. Conditions: Homo sapiens, HL-60, 72 h, mean of at least two determinations.
From the text: as §1, §2

Another data set relates to KB. The experiment in a line: MTT assay, antiproliferative activity against KB cells. Conditions: Homo sapiens, 72 h, mean of at least two determinations. Type of data set: cell-based.
From the text: as §1, §2

Drawing on publication PMC3419191, “Identification of Novel Piperazinylquinoxaline Derivatives as Potent Phosphoinositide 3-Kinase (PI3K) Inhibitors” (PLoS ONE, 2012), this text covers IC50 and melting point for 21 molecules.

The molecule `Cc1ccc(S(=O)(=O)c2nc3ccccc3nc2N2CCC(C(N)=O)CC2)cc1` [Compound 5, 2-(4-Carbamoylpiperidin-1-yl)-3-(4-methylphenylfsulfonyl)quinoxaline] displayed a melting point of 200 to 203 °C. In the data set with HCT116, this molecule had an IC50 of 1.2 µM. In addition, the IC50 with PC3 stood at 2.28 µM. The molecule also returned an IC50 with A549 of 27.4 µM. The molecule also registered an IC50 in the data set with HL60 of 0.14 µM. Moreover, in the data set with KB, the IC50 amounted to 11.8 µM.
The molecule `COc1ccc(S(=O)(=O)c2nc3ccccc3nc2N2CCC(C(N)=O)CC2)cc1` [Compound 6, 2-(4-Carbamoylpiperidin-1-yl)-3-(4-methoxyphenylsulfonyl)quinoxaline] returned a melting point of 185 to 187 °C. The molecule further came in with an IC50 in the data set on HCT116 of 2.55 µM. In the data set on PC3, this molecule had an IC50 of 2.28 µM. The same molecule displayed an IC50 in the data set on A549 of 17 µM. Also, the IC50 in the data set with HL60 was 0.21 µM. The IC50 in the data set on KB was found to be 10.2 µM.
In the case of `NC(=O)C1CCN(c2nc3ccccc3nc2S(=O)(=O)c2ccc(Br)cc2)CC1` [Compound 7, 2-(4-Carbamoylpiperidin-1-yl)-3-(4-bromophenylsulfonyl)quinoxaline], the melting point was in the range of 209 to 210 °C. The IC50 in the data set on HCT116 came to 1.61 µM. In the data set on PC3, inhibition was half-maximal at 1.17 µM (IC50). Further, the IC50 with A549 turned out to be 12.1 µM. Besides, in the data set on HL60, 0.15 µM corresponded to half-maximal inhibition (IC50). The same molecule came in with an IC50 with KB of 4.22 µM.
`NC(=O)C1CCN(c2nc3ccccc3nc2S(=O)(=O)c2ccc(F)cc2)CC1` [Compound 8, 2-(4-Carbamoylpiperidin-1-yl)-3-(4-fluorophenylsulfonyl)quinoxaline] registered a melting point of 198 to 202 °C. For the same molecule, half-maximal inhibition in the data set with HCT116 (IC50) required 7.13 µM. In the data set with PC3, this molecule came in with an IC50 of 4.36 µM. Also, the midpoint of inhibition in the data set on A549, the IC50, lay at 10.2 µM. The molecule further registered an IC50 in the data set on HL60 of 4.15 µM. The molecule also showed an IC50 in the data set with KB of 6.45 µM.
For `CC(=O)N1CCN(c2nc3ccccc3nc2S(=O)(=O)c2ccc(C)cc2)CC1` [Compound 10, 2-(4-Acetylpiperazin-1-yl)-3-(4-methylphenylsulfonyl)quinoxaline], the melting point was in the range of 148 to 150 °C. This molecule also registered an IC50 with HCT116 of 2.6 µM. The same molecule showed an IC50 in the data set on PC3 of 2.27 µM. The molecule further showed an IC50 in the data set on A549 of 2.42 µM. Also, it took 3.28 µM to reach half-maximal inhibition in the data set on HL60 (IC50). In addition, in the data set with KB, the IC50 was 3.89 µM.
In the case of `COc1ccc(S(=O)(=O)c2nc3ccccc3nc2N2CCN(C(C)=O)CC2)cc1` [Compound 11, 2-(4-Acetylpiperazin-1-yl)-3-(4-methoxyphenylsulfonyl)quinoxaline], the melting point was in the range of 160 to 162 °C. In addition, the IC50 with HCT116 came to 3.66 µM. For the same molecule, in the data set with PC3, the IC50 worked out at 2.18 µM. The IC50 in the data set with A549 is 18.6 µM. This molecule had an IC50 with HL60 of 0.48 µM. In the data set on KB, the 50% inhibitory concentration (IC50) is 10.3 µM.
Turning to `CC(=O)N1CCN(c2nc3ccccc3nc2S(=O)(=O)c2ccc(Br)cc2)CC1` [Compound 12, 2-(4-Acetylpiperazin-1-yl)-3-(4-bromophenylsulfonyl)quinoxaline], the melting point is 174 to 178 °C. In the data set on HCT116, this molecule showed an IC50 of 0.53 µM. In the data set with PC3, this molecule came in with an IC50 of 3.03 µM. Further, the IC50 in the data set with A549 came to 9.79 µM. For the same molecule, the half-inhibitory concentration (IC50) in the data set on HL60 was 0.12 µM. Moreover, in the data set on KB, the IC50 stood at 4.3 µM.
As to `CC(=O)N1CCN(c2nc3ccccc3nc2S(=O)(=O)c2ccc(F)cc2)CC1` [Compound 13, 2-(4-Acetylpiperazin-1-yl)-3-(4-fluorophenylsulfonyl)quinoxaline], the melting point lay within 108 to 112 °C. 4.34 µM corresponded to half-maximal inhibition in the data set with HCT116 (IC50). The IC50 with PC3 is 3.17 µM. Further, the IC50 with A549 came to 7.12 µM. The midpoint of inhibition in the data set with HL60, the IC50, lay at 1.78 µM. Also, in the data set with KB, the midpoint of inhibition, the IC50, lay at 6.15 µM.
In turn, `COc1ccc(S(=O)(=O)c2nc3ccccc3nc2N2CCN(C)CC2)cc1` [Compound 16, 2-(4-Methylpiperazin-1-yl)-3-(4-methoxyphenylsulfonyl)quinoxaline] showed a melting point of 121 to 124 °C. The molecule further displayed an IC50 with HCT116 of 2.37 µM. The IC50 in the data set on PC3 worked out at 1.55 µM. Inhibition with A549 was half-maximal at 8.57 µM (IC50). In addition, the IC50 with HL60 stood at 0.54 µM. The IC50 in the data set on KB stood at 2.53 µM.
`CN1CCN(c2nc3ccccc3nc2S(=O)(=O)c2ccc(F)cc2)CC1` [Compound 18, 2-(4-Methylpiperazin-1-yl)-3-(4-fluorophenylsulfonyl)quinoxaline]: the melting point fell in the range of 147 to 148 °C. Further, 8.21 µM corresponded to half-maximal inhibition in the data set with HCT116 (IC50). This molecule returned an IC50 in the data set on PC3 of 3.09 µM. The same molecule yielded an IC50 in the data set with A549 of 7.95 µM. Also, inhibition with HL60 was half-maximal at 2.75 µM (IC50). In the data set with KB, this molecule came in with an IC50 of 21.6 µM.
For the molecule `Cc1ccc(S(=O)(=O)c2nc3ccccc3nc2N2CCNCC2)cc1` [Compound 20, 2-(Piperazin-1-yl)-3-(4-methylphenylsulfonyl)quinoxaline], the IC50 with HCT116 stood at 0.47 µM; in the data set with PC3 it was 1.32 µM; in the data set with A549, 14.4 µM; with HL60, 0.12 µM; with KB, 7.26 µM.
`COc1ccc(S(=O)(=O)c2nc3ccccc3nc2N2CCNCC2)cc1` [Compound 21, 2-(Piperazin-1-yl)-3-(4-methoxyphenylsulfonyl)quinoxaline]: the melting point lay in the range of 142 to 144 °C. The molecule also gave an IC50 with HCT116 of 0.63 µM. For the same molecule, in the data set with PC3, the IC50 stood at 0.68 µM. Also, in the data set with A549, the IC50 amounted to 1.37 µM. The molecule further returned an IC50 in the data set on HL60 of 0.16 µM. The IC50 with KB is 11.5 µM.
Turning to `O=S(=O)(c1ccc(F)cc1)c1nc2ccccc2nc1N1CCNCC1` [Compound 23, 2-(Piperazin-1-yl)-3-(4-fluorophenylsulfonyl)quinoxaline], the IC50 in the data set on HCT116 is 2.43 µM; in the data set on PC3 it was 2.05 µM; in the data set with A549 it was 2.79 µM; in the data set on HL60 it was 1.39 µM; in the data set with KB it was 4.58 µM.
For the molecule `CC1CN(c2nc3ccccc3nc2S(=O)(=O)c2ccc(F)cc2)CCN1` (stereo not drawn) [Compound 28, 2-(3-Methylpiperazin-1-yl)-3-(4-fluorophenylsulfonyl)quinoxaline], the melting point is 119 to 123 °C. In the data set on HCT116, this molecule returned an IC50 of 2.2 µM. The molecule further registered an IC50 in the data set on PC3 of 2.34 µM. The molecule also yielded an IC50 in the data set with A549 of 3.45 µM. The same molecule returned an IC50 with HL60 of 1.95 µM. Besides, in the data set with KB, it took 2.03 µM to reach half-maximal inhibition (IC50).
In turn, `Cc1ccc(S(=O)(=O)c2nc3ccccc3nc2N2CCN(C(=O)c3ccccc3)CC2)cc1` [Compound 30, 2-(4-Benzoylpiperazin-1-yl)-3-(4-methylphenylsulfonyl)quinoxaline] gave a melting point of 182 to 185 °C. The molecule further gave an IC50 with HCT116 of 6.9 µM. The molecule further came in with an IC50 with PC3 of 5.81 µM. In the data set on A549, this molecule came in with an IC50 of 8.03 µM. Moreover, in the data set on HL60, the IC50 turned out to be 17.3 µM. For the same molecule, the 50% inhibitory concentration (IC50) in the data set with KB came to 3.67 µM.
Regarding `COc1ccc(S(=O)(=O)c2nc3ccccc3nc2N2CCN(C(=O)c3ccccc3)CC2)cc1` [Compound 31, 2-(4-Benzoylpiperazin-1-yl)-3-(4-methoxyphenylsulfonyl)quinoxaline], the melting point was 166 to 169 °C. Besides, the IC50 in the data set with HCT116 was 17.2 µM. In addition, the IC50 with PC3 is 3.63 µM. In the data set with A549, this molecule had an IC50 of 7.43 µM. The molecule also gave an IC50 with HL60 of 6.93 µM. Further, the IC50 with KB was 5.65 µM.
Take `O=C(c1ccccc1)N1CCN(c2nc3ccccc3nc2S(=O)(=O)c2ccc(Br)cc2)CC1` [Compound 32, 2-(4-Benzoylpiperazin-1-yl)-3-(4-bromophenylsulfonyl)quinoxaline]: the melting point fell in the range of 204 to 205 °C. The same molecule had an IC50 with HCT116 of 10.1 µM. Further, in the data set on PC3, the IC50 worked out at 1.4 µM. The IC50 with A549 is 3.96 µM. In the data set on HL60, this molecule showed an IC50 of 17.4 µM. In the data set with KB, this molecule gave an IC50 of 3.37 µM.
On to `Cc1ccc(S(=O)(=O)c2nc3ccccc3nc2N2CCN(CCCN3CCOCC3)CC2)cc1` [Compound 50, 2-(4-(3-Morpholinopropyl)piperazin-1-yl)-3-(4-methylphenylsulfonyl)quinoxaline], for which the IC50 in the data set with HCT116 amounted to 0.31 µM; in the data set on PC3, 3.83 µM; in the data set on A549, 0.51 µM.
For `COc1ccc(S(=O)(=O)c2nc3ccccc3nc2N2CCN(CCCN3CCOCC3)CC2)cc1` [Compound 51, 2-(4-(3-Morpholinopropyl)piperazin-1-yl)-3-(4-methoxyphenylsulfonyl)-quinoxaline], in that order: 2.59 µM, 9.3 µM and 2.1 µM.
The like results for `O=S(=O)(c1ccc(F)cc1)c1nc2ccccc2nc1N1CCN(CCCN2CCOCC2)CC1` [Compound 53, 2-(4-(3-Morpholinopropyl)piperazin-1-yl)-3-(4-fluorophenylsulfonyl)quinoxaline] were, in that order, 0.93 µM, 4.8 µM and 1.12 µM.
As for `O=c1cc(N2CCOCC2)oc2c(-c3ccccc3)cccc12` [LY294002, 2-(4-morpholinyl)-8-phenyl-4H-1-benzopyran-4-one, reference compound], the IC50 with HCT116 stood at 56 µM; in the data set with PC3, 61.4 µM; with A549, 89.7 µM; in the data set on HL60 it was 9.94 µM; in the data set with KB, 44.8 µM.

By IC50 is commonly meant the concentration at which inhibition is half-maximal. A lower IC50 goes with greater potency. Broadly, the melting point is the temperature of the solid-liquid transition.
